Patent EP4772505A1, “COMPOUND FOR DEGRADING ANDROGEN RECEPTOR AND MEDICAL USE THEREOF” (Ubix Therapeutics, Inc., priority 2023, dated 2025)

What follows are compounds tested against T1, Androgen Receptor (AR) (Homo sapiens, UniProt P10275, T878A) (assay: Measurement of AR protein degradation in LNCaP cells by Western blotting). Details: 10 nM compound, 20 hours, LNCaP cells; read-out: AR degradation in LNCaP cells (%).
T1 construct: endogenous in cells; host or cells: LNCaP
T1 sequence (P10275 1-920 T878A): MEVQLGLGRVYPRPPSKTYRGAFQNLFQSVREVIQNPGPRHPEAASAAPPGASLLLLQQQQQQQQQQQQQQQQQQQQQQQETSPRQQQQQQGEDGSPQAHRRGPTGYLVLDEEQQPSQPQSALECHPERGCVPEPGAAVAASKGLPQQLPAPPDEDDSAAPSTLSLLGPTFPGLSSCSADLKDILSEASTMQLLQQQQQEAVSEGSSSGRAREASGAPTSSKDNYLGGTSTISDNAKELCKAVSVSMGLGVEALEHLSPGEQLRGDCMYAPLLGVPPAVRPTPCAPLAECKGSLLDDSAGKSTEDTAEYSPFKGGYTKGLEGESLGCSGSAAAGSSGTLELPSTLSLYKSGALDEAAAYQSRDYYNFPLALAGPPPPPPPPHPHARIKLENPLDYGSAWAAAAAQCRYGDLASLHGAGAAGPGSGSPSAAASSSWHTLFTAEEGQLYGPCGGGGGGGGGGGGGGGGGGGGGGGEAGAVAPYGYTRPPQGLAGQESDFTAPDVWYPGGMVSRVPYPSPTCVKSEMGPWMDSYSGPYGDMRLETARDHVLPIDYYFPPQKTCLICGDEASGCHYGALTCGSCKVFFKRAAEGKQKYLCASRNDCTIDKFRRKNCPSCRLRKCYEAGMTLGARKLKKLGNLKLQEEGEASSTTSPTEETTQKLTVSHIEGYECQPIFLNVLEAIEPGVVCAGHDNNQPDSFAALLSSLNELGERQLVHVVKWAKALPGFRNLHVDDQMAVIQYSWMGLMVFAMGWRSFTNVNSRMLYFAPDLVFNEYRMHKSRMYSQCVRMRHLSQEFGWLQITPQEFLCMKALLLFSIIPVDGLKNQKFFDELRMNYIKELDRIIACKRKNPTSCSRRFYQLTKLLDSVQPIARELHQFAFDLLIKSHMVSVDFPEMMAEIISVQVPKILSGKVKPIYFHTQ
Format: cell-based
Method: The amount of AR protein present in LNCaP or VCaP cells was measured after treating them with the synthesized compound. The amount of AR protein was measured using Western blotting. The protocol for the experiments using LNCaP or VCaP cells was as follows.
[Culture] LNCaP cells were resuspended in RPMI1640 medium + HEPES (Hyclone, SH30255.01), 10% FBS (Hyclone, SV30207.02), and 1% Penicillin-streptomycin (Welgene, LS 202-02). 3 x 10^5 cells/mL were seeded in 12-well plates (1 mL per well) and cultured for 3 days. VCaP cells were resuspended in IMDM MEDIUM (Hyclone, SH30228.01), 20% FBS (Hyclone, SV30207.02), and 1% Penicillin-streptomycin (Welgene, LS 202-02), seeded at 9 x 10^5/mL in 1 mL per 12-well plate, and cultured for 3 days.
[Compound Treatment] 10 µL of 100x stock (e.g., 0.1, 1, 10 µM) compound solution at the final compound treatment concentration (e.g., 0.001, 0.01, 0.1 µM) was added to each well in 1 mL media, and cells were harvested after 20 hours. For DC50 measurement, 100x stock (0.01, 0.1, 1, 10, 100, 1000 µM) compound solutions at the final compound treatment concentration (0.0001, 0.001, 0.01, 0.1, 1, 10 µM) were used.
[Cell lysis] The cell pellet was suspended using 1% SDS lysis buffer (50 mM Tris, 1 mM EDTA, 1% SDS, pH 8.0, 0.5 mM PMSF, 1x Protease/Phosphatase inhibitor Cocktail (Cell Signaling Technology, 5872S)), and sonication (70% AMP, 10 cycles (30 sec ON/59 sec OFF)) was performed. After centrifugation at 4°C and 20,000 g for 20 minutes, the cell lysate was obtained and transferred to a new tube.
[Protein Quantification] A BCA protein assay (SMART™ BCA Protein Assay Kit, iNtRON Biotechnology, 21071) was performed using a 96-well microplate. 5 µL of cell lysate and 5 µL of 1% SDS lysis buffer were added to each well of the 96-well plate, followed by an additional 200 µL of BCA reagent (Reagent A: Reagent B = 50:1). The wells were incubated at 37°C for 30 minutes and cooled to room temperature for 10 minutes. After shaking for 10 seconds, the absorbance was measured at a wavelength of 562 nm. The unknown protein concentration was determined using a BSA standard curve (0, 0.125, 0.25, 0.5, 1, 2 mg/mL). Western blotting samples were prepared by mixing cell lysate, 1% SDS lysis buffer, 4x NuPAGE™ LDS Sample buffer (Invitrogen, NP0008), and 10X NuPAGE™ Sample Reducing Agent (Invitrogen, NP0009) and boiling at 70°C for 10 minutes.
[Electrophoresis] 10 µg of protein sample was loaded into each well of a NuPAGE™ 4 to 12%, Bis-Tris, 1.0 mm Mini Protein Gel, 15-well, 17-well, or 26-well (Invitrogen, NP0323BOX, NP0329BOX, or WG1403BOX) and electrophoresed for 40 minutes using NuPAGE™MES SDS Running Buffer (Invitrogen, NP0002) at 200 V (constant V).
[Transfer] Transfer was performed for 15 or 18 minutes using the electrophoresed gel and the Trans-Blot® Turbo™ Transfer Starter System (Bio-RAD, #17001918, Mini Nitrocellulose) at 1.3 A (constant A) and 25 V (limit V). To confirm protein transfer, 15 mL of Ponceau S solution (Sigma, P7170-1L) was used to stain for 1 minute, and then washed to check the degree of transfer.
[Blocking] The membrane for AR and GAPDH detection was blocked with 5% skim milk/0.2% TBST (Skim milk: BD, 232100/ 20X TBS: Biosesang, TR2008-100-00/ 10% Tween 20 Solution: Bio-RAD, #161-0781) for 45 minutes.
[Antibodies and Detection] Primary AR antibody (Androgen Receptor: CST, 5153S) was mixed with 5% skim milk/0.2% TBST at a ratio of 1:1,000 and reacted at room temperature for 3 hours or at 4°C overnight. Primary GAPDH antibody (CST, 2118S) was mixed with 5% skim milk/0.2% TBST at a ratio of 1:2,000 and reacted at room temperature for 3 hours or at 4°C overnight. Afterwards, TBST (0.2% Tween 20) was used for washing three times every 5 minutes. Secondary antibody to AR antibody, Anti-rabbit IgG, HRP-linked Antibody (CST, 7074S), was mixed with 5% skim milk/0.2% TBST at a ratio of 1:5,000 and reacted at room temperature for 45 minutes. […]

Row | Compound | Dmax at 0.01 µM [%]
1 | COc1cc(N2CCC(C(=O)Nc3ccc(OC4CCN(CC5CCN(c6ccc(NC7CCC(=O)NC7=O)cc6F)CC5)CC4)nn3)CC2)ccc1C#N (stereo not shown) [Example 16, 1-(4-cyano-3-methoxyphenyl)-N-(6-((1-((1-(4-((2,6-dioxopiperidin-3-yl)amino)-2-fluorophenyl)piperidin-4-yl)methyl)piperidin-4-yl)oxy)pyridazin-3-yl)piperidine-4-carboxamide] | 93
2 | COc1cc(N2CCC(C(=O)Nc3ccc(OC4CCN(CC5CCN(c6ccc(NC7CCC(=O)NC7=O)cc6F)CC5)CC4)cn3)CC2)ccc1C#N (stereo not shown) [Example 13, 1-(4-cyano-3-methoxyphenyl)-N-(5-((1-((1-(4-((2,6-dioxopiperidin-3-yl)amino)-2-fluorophenyl)piperidin-4-yl)methyl)piperidin-4-yl)oxy)pyridin-2-yl)piperidine-4-carboxamide] | 91

Same assay, conditions: 100 nM compound, 20 hours, LNCaP cells; read-out: AR degradation in LNCaP cells (%)

Row | Compound | Dmax at 0.1 µM [%]
3 | COc1cc(N2CCC(C(=O)Nc3ccc(OC4CCN(CC5CCN(c6ccc(NC7CCC(=O)NC7=O)cc6F)CC5)CC4)nn3)CC2)ccc1C#N (stereo not shown) [Example 16, 1-(4-cyano-3-methoxyphenyl)-N-(6-((1-((1-(4-((2,6-dioxopiperidin-3-yl)amino)-2-fluorophenyl)piperidin-4-yl)methyl)piperidin-4-yl)oxy)pyridazin-3-yl)piperidine-4-carboxamide] | 98
4 | COc1cc(N2CCC(C(=O)Nc3ccc(OC4CCN(CC5CCN(c6ccc(NC7CCC(=O)NC7=O)cc6F)CC5)CC4)cn3)CC2)ccc1C#N (stereo not shown) [Example 13, 1-(4-cyano-3-methoxyphenyl)-N-(5-((1-((1-(4-((2,6-dioxopiperidin-3-yl)amino)-2-fluorophenyl)piperidin-4-yl)methyl)piperidin-4-yl)oxy)pyridin-2-yl)piperidine-4-carboxamide] | 99

Same assay, conditions: LNCaP, 20 h, read-out: AR degradation in LNCaP cells (%)

Row | Compound | Dmax at 0.01 µM [%] | Dmax at 0.1 µM [%]
5 | N#Cc1ccc(N2CCC(C(=O)Nc3ccc(OC4CCN(CC5CCN(c6ccc(NC7CCC(=O)NC7=O)cc6F)CC5)CC4)nn3)CC2)cc1C(F)(F)F (stereo not shown) [Example 7, 1-(4-cyano-3-(trifluoromethyl)phenyl)-N-(6-((1-((1-(4-((2,6-dioxopiperidin-3-yl)amino)-2-fluorophenyl)piperidin-4-yl)methyl)piperidin-4-yl)oxy)pyridazin-3-yl)piperidine-4-carboxamide] | 79 | 93
6 | N#Cc1ccc(N2CCC(C(=O)Nc3ccc(OC4CCN(CC5CCN(c6ccc(N[C@H]7CCC(=O)NC7=O)cc6F)CC5)CC4)cn3)CC2)cc1Cl [Example 9, (S)-1-(3-chloro-4-cyanophenyl)-N-(5-((1-((1-(4-((2,6-dioxopiperidin-3-yl)amino)-2-fluorophenyl)piperidin-4-yl)methyl)piperidin-4-yl)oxy)pyridin-2-yl)piperidine-4-carboxamide] | 86 | 96
7 | N#Cc1ccc(N2CCC(C(=O)Nc3ccc(OC4CCN(CC5CCN(c6ccc(NC7CCC(=O)NC7=O)cc6F)CC5)CC4)nn3)CC2)c(F)c1Cl (stereo not shown) [Example 15, 1-(3-chloro-4-cyano-2-fluorophenyl)-N-(6-((1-((1-(4-((2,6-dioxopiperidin-3-yl)amino)-2-fluorophenyl)piperidin-4-yl)methyl)piperidin-4-yl)oxy)pyridazin-3-yl)piperidine-4-carboxamide] | 88 | 90
8 | N#Cc1ccc(N2CCC(C(=O)Nc3ccc(OC4CCN(CC5CCN(c6ccc(N[C@H]7CCC(=O)NC7=O)cc6F)CC5)CC4)cn3)CC2)cc1C(F)(F)F [Example 2, (S)-1-(4-cyano-3-(trifluoromethyl)phenyl)-N-(5-((1-((1-(4-((2,6-dioxopiperidin-3-yl)amino)-2-fluorophenyl)piperidin-4-yl)methyl)piperidin-4-yl)oxy)pyridin-2-yl)piperidine-4-carboxamide] | 86 | 99
9 | N#Cc1ccc(N2CCC(C(=O)Nc3ccc(OC4CCN(CC5CCN(c6ccc(NC7CCC(=O)NC7=O)cc6F)CC5)CC4)cn3)CC2)c(F)c1Cl (stereo not shown) [Example 12, 1-(3-chloro-4-cyano-2-fluorophenyl)-N-(5-((1-((1-(4-((2,6-dioxopiperidin-3-yl)amino)-2-fluorophenyl)piperidin-4-yl)methyl)piperidin-4-yl)oxy)pyridin-2-yl)piperidine-4-carboxamide] | 88 | 96
10 | N#Cc1ccc(N2CCC(C(=O)Nc3ccc(OC4CCN(CC5CCN(c6ccc(NC7CCC(=O)NC7=O)cc6F)CC5)CC4)cn3)CC2)cc1C(F)(F)F (stereo not shown) [Example 1, 1-(4-cyano-3-(trifluoromethyl)phenyl)-N-(5-((1-((1-(4-((2,6-dioxopiperidin-3-yl)amino)-2-fluorophenyl)piperidin-4-yl)methyl)piperidin-4-yl)oxy)pyridin-2-yl)piperidine-4-carboxamide] | 84 | 99
11 | N#Cc1ccc(N2CCC(C(=O)Nc3ccc(OC4CCN(CC5CCN(c6ccc(N[C@@H]7CCC(=O)NC7=O)cc6F)CC5)CC4)cn3)CC2)cc1C(F)(F)F [Example 3, (R)-1-(4-cyano-3-(trifluoromethyl)phenyl)-N-(5-((1-((1-(4-((2,6-dioxopiperidin-3-yl)amino)-2-fluorophenyl)piperidin-4-yl)methyl)piperidin-4-yl)oxy)pyridin-2-yl)piperidine-4-carboxamide] | 93 | 99
12 | N#Cc1ccc(N2CCC(C(=O)Nc3ccc(OC4CCN(CC5CCN(c6ccc(NC7CCC(=O)NC7=O)cc6Cl)CC5)CC4)cn3)CC2)cc1C(F)(F)F (stereo not shown) [Example 17, N-(5-((1-((1-(2-chloro-4-((2,6-dioxopiperidin-3-yl)amino)phenyl)piperidin-4-yl)methyl)piperidin-4-yl)oxy)pyridin-2-yl)-1-(4-cyano-3-(trifluoromethyl)phenyl)piperidine-4-carboxamide] | 77 | 99
13 | N#Cc1ccc(N2CCC(C(=O)Nc3ccc(OC4CCN(CC5CCN(c6ccc(N[C@@H]7CCC(=O)NC7=O)cc6F)CC5)CC4)cn3)CC2)cc1Cl [Example 10, (R)-1-(3-chloro-4-cyanophenyl)-N-(5-((1-((1-(4-((2,6-dioxopiperidin-3-yl)amino)-2-fluorophenyl)piperidin-4-yl)methyl)piperidin-4-yl)oxy)pyridin-2-yl)piperidine-4-carboxamide] | 90 | 99
